The values below come from patent US8969573B2, “Compounds for the inhibition of cellular proliferation” (President and Fellows of Harvard College, priority 2010, dated 2015).

Like-named read-outs stand apart in the source and are kept apart here. Bounds are passed on as bounds.

Assay [1] addresses eIF4E (Homo sapiens, UniProt P06730). The experiment in a line: NMR binding experiments (titration with protein).
Protocol: Experiments were carried out with representative compounds to provide an indication of the ability of the compounds of the present invention to bind to eIF4E and therefore act as inhibitors of the binding of eIF4E to eIF4G.
Assay [2] has as its target eIF4E/eIF4G interaction (Homo sapiens, UniProt P06730). The experiment in a line: Fluorescent polarization assay. The format is binding. The following applies: FITC eIF4G peptide and recombinant eIF4E, ratio to Z (4EGI-1 = 1). How it is done: The difference between the two measurement yields net polarization which is considered full signal of the assay (100% control). […] The activity of compound at each concentration is determined by comparing the fluorescent polarization (FP) signal in the presence of compound to the control (no compound) value. The percent inhibition is =100-((FP compound/FP control)*100).

The subject of assay [3] is CRL2351 human breast cancer. The experiment in a line: SRB assay (inhibition of cell proliferation). In kind it is cell-based. The following applies: CRL2351 human breast cancer cells, summary table, read-out: IC50 [μM} CRL2351.
The test system of assay [4] is CRL2813 human melanoma. As to the kind of experiment: SRB assay (inhibition of cell proliferation). In kind it is cell-based. The following applies: summary table, read-out: IC50 [μM} CRL2813.
[5] abbreviates: Homo sapiens, CRL2813, CRL2813 human melanoma cells.

Sequence of eIF4E/eIF4G interaction (P06730 whole entry): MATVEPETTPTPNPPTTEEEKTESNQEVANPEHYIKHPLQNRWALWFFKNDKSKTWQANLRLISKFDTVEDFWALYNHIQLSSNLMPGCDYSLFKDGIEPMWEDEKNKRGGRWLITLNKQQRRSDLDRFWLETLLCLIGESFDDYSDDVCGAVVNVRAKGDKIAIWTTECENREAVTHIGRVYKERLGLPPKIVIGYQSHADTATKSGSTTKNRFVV
Sequence of eIF4E (P06730 27-217 limits assumed): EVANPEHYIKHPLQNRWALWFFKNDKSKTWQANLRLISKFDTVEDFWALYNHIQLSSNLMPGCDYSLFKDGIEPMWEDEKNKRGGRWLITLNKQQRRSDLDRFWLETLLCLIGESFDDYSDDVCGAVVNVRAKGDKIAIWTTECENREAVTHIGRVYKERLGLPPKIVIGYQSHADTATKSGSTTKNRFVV

With `O=C(O)C(Cc1ccccc1[N+](=O)[O-])NNc1nc(-c2ccc(Cl)c(Cl)c2)cs1` (stereo not shown) [KY-720], the half-maximal inhibitory concentration (IC50) in assay [1] is around 4 µM.

As to `COc1ccc(-c2nc(NN=C(Cc3ccccc3[N+](=O)[O-])C(=O)O)sc2-c2ccc(-n3cc(CO)nn3)cc2)cc1` [KY-383, 2-{[5-[4-(4-hydroxymethyl-[1,2,3]triazol-1-yl)-phenyl]-4-(4-methoxy-phenyl)-thiazol-2-yl]-hydrazono}-3-(2-nitro-phenyl)-propionic acid], the IC50 in assay [1] was around 3 µM; in assay [3] (Homo sapiens), above 20 µM; in assay [4] (setting [5]) it was 13 ± 3.6 µM. Moreover, the “Fp (ratio to Z)” value in assay [2] worked out at 2.3.

For `O=C(O)[C@H](Cc1ccccc1[N+](=O)[O-])Nc1nc(-c2ccc(Cl)c(Cl)c2)cs1` [KY-549], the IC50 in assay [1] is around 7 µM.

In assay [1], `O=C(O)C(Cc1ccc(O)cc1)=NNc1nc(-c2cccc([N+](=O)[O-])c2)cs1` [KY-A6] displayed an IC50 of around 5 µM.

As to `Cc1ccc(-c2nc(NN=C(Cc3ccccc3[N+](=O)[O-])C(=O)O)sc2-c2ccc(Cl)cc2)cc1` [KY-351PR], the “Fp (ratio to Z)” value in assay [2] turned out to be 1.1. For the same compound, the IC50 is 2.5 µM in assay [3] (Homo sapiens) and 3 µM in assay [4] (setting [5]).

As for `O=C(O)C(=NNc1nc(-c2ccc(Cl)c(Cl)c2)cs1)c1ccccc1[N+](=O)[O-]` (stereo in doubt) [KY-782-E, (E)-2-(2-(4-(3,4-dichlorophenyl)thiazol-2-yl)hydrazono)-2-(2-nitrophenyl)acetic acid], in assay [2], the “Fp (ratio to Z)” value was found to be 0.94. Besides, the IC50 in assay [3] worked out at 10 µM; in assay [4] (CRL2813 human melanoma cells), 2.2 µM.

On to `COc1ccc(-c2nc(N/N=C(/Cc3ccccc3[N+](=O)[O-])C(=O)O)sc2-c2cccc(-n3cc(CO)nn3)c2)cc1` [KY-467S], for which the “Fp (ratio to Z)” value in assay [2] came out at 0.85. In addition, the IC50 in assay [3] (Homo sapiens) and in assay [4] (setting [5]) was above 20 µM throughout.
